Each block holds one compound with its values, some of them ahead of it.
Key:
[1] = target: Voltage-gated inwardly rectifying potassium channel KCNH2 (Homo sapiens, UniProt Q12809); experiment: Displacement of [35S]-labeled MK499 from cloned hERG expressed in HEK cells; assay type: cell-based, HEK293
Gerbil, jird [2] = experiment: Inhibition of GR-73632-induced foot tapping in iv dosed gerbil; assay type: functional; settings: Meriones, read-out: ID50 (the source's name)
Substance-P receptor = Substance-P receptor (Homo sapiens, UniProt P25103); experiment: Displacement of [125I]-labeled substance P from human cloned NK1 receptor expressed in CHO cells; assay type: cell-based
Gerbil, jird [3] = experiment: Inhibition of GR-73632-induced foot tapping in iv dosed gerbils after 24 hrs; assay type: functional; settings: Meriones, read-out: ID50 (the source's name)
Gerbil, jird [4] = experiment: Inhibition of GR-73632 induced foot tapping in gerbils at 3 mg/kg, iv after 24 hrs; assay type: functional; settings: Meriones
Gerbil, jird [5] = experiment: Inhibition of GR-73632-induced foot tapping in gerbils at 3 mg/kg, iv; assay type: functional; settings: Meriones

Sequence of Voltage-gated inwardly rectifying potassium channel KCNH2 (Q12809 whole entry): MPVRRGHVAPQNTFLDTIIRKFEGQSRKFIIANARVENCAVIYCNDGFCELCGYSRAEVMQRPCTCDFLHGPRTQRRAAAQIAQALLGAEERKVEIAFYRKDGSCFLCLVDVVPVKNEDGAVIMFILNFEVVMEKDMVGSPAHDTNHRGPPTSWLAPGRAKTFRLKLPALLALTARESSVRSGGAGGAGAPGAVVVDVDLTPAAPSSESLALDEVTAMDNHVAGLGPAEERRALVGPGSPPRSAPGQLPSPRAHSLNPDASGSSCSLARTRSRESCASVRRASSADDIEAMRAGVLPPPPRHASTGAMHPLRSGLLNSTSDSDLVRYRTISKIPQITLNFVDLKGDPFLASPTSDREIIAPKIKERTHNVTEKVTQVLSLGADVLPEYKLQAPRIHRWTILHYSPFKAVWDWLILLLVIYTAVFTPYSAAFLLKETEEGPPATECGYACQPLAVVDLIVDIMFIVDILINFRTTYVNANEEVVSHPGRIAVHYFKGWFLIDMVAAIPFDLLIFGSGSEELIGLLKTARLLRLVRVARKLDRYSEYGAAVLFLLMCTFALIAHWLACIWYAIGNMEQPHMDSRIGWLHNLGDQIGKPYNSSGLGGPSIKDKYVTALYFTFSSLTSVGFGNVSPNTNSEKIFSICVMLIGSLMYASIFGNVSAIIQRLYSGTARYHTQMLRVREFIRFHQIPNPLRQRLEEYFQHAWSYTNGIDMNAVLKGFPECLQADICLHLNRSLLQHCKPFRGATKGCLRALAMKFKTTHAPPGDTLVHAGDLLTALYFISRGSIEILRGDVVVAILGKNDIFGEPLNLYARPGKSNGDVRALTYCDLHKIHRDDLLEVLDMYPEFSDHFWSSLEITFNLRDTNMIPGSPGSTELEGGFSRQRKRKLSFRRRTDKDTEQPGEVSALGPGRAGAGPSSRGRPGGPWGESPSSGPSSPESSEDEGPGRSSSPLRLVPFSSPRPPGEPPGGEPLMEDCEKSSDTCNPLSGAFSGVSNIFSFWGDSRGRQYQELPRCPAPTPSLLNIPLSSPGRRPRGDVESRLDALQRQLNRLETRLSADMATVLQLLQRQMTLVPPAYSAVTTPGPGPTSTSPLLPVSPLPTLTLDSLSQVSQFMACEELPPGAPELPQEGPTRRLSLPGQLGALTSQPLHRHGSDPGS
Sequence of Substance-P receptor (P25103 whole entry): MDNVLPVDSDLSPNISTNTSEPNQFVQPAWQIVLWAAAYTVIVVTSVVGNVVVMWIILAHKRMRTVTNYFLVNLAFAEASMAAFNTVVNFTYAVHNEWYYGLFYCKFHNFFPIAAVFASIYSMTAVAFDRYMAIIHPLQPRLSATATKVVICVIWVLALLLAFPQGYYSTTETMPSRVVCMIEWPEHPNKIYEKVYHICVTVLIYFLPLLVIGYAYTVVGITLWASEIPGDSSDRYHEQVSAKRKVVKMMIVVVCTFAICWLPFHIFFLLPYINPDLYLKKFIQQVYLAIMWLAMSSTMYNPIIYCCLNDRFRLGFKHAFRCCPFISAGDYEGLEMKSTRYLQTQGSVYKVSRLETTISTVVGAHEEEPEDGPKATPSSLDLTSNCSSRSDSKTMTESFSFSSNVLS

Structure (SMILES): C[C@@H](OC1CCC2NC1(c1ccccc1)CC2c1nnnn1C)c1cc(C(F)(F)F)cc(C(F)(F)F)c1 (stereo partly specified)
Ki [1]: 2800 nM
ED50 (Gerbil, jird [2]): 0.2 mg/kg
IC50 (Substance-P receptor): 1.2 nM
ED50 (Gerbil, jird [3]): 0.8 mg/kg

Structure (SMILES): C[C@@H](OC1CCC2CCC1(c1ccccc1)N2)c1cc(C(F)(F)F)cc(C(F)(F)F)c1 (stereo partly specified)
IC50 (Substance-P receptor): 4.2 nM

Structure (SMILES): C[C@@H](OC1CCC2NC1(c1ccccc1)CC2(F)c1nnn(C)n1)c1cc(C(F)(F)F)cc(C(F)(F)F)c1 (stereo partly specified)
inhibition in vivo at 3 mg/kg (Gerbil, jird [4]): 23%
Ki [1]: > 5000 nM
IC50 (Substance-P receptor): 0.4 nM

Structure (SMILES): Cn1nnc(C2(F)CC3(c4ccccc4)NC2CCC3OCc2cc(C(F)(F)F)cc(C(F)(F)F)c2)n1 (stereo unspecified)
inhibition in vivo at 3 mg/kg (Gerbil, jird [4]): 11%
Ki [1]: > 10000 nM
IC50 (Substance-P receptor): 1.5 nM

IC50 (Substance-P receptor): 2.8 nM
Structure (SMILES): O=S(=O)(c1ccccc1)C1CC2(c3ccccc3)NC1CCC2OCc1cc(C(F)(F)F)cc(C(F)(F)F)c1 (stereo unspecified)
Ki [1]: 1300 nM

Structure (SMILES): FC(F)(F)c1cc(COC2CCC3CCC2(c2ccccc2)N3)cc(C(F)(F)F)c1 (stereo unspecified)
Ki [1]: 300 nM
IC50 (Substance-P receptor): 3 nM

Structure (SMILES): Cn1nnc(C2CC3(c4ccccc4)NC2CCC3OCc2cc(C(F)(F)F)cc(C(F)(F)F)c2)n1 (stereo unspecified)
Ki [1]: 100 nM
ED50 (Gerbil, jird [2]): 0.3 mg/kg
IC50 (Substance-P receptor): 1 nM
ED50 (Gerbil, jird [3]): 0.6 mg/kg

IC50 (Substance-P receptor): 0.6 nM
Structure (SMILES): C[C@@H](OC1CCC2NC1(c1ccccc1)CC2S(=O)(=O)c1ccccc1)c1cc(C(F)(F)F)cc(C(F)(F)F)c1 (stereo partly specified)
inhibition in vivo at 3 mg/kg (Gerbil, jird [5]): 39%

Structure (SMILES): C[C@@H](OC1CCC2NC1(c1ccccc1)CC2c1nnn(C)n1)c1cc(C(F)(F)F)cc(C(F)(F)F)c1 (stereo partly specified)
Ki [1]: 1800 nM
ED50 (Gerbil, jird [2]): 0.4 mg/kg
IC50 (Substance-P receptor): 0.5 nM
ED50 (Gerbil, jird [3]): 1.1 mg/kg

Structure (SMILES): C[C@H](OC1CCC2CCC1(c1ccccc1)N2)c1cc(C(F)(F)F)cc(C(F)(F)F)c1 (stereo partly specified)
IC50 (Substance-P receptor): 200 nM
